From ChEMBL document CHEMBL3430912, “GSK Tres Cantos Anti-Kinetoplastid Screening (TCAKS) Data”

Legend:
[1] = tested on: Trypanosoma cruzi; assay: GSK_TCAKS: pIC50 Trypanosoma cruzi viability assay using beta-GAL activity. This assay was run at single shot at 5uM compound concentration per well. The biological reagents consisted of NIH-3T3 host cells and trypomastigotes parasitic cells; both cell types were set to a 3.3 * 10^5 cells/mL dilution in assay DMEM by means of a CASY cell counter device using a 60um capillary. 6 uL of the mixture were dispensed per well (about 1 * 10^3 host-cells and 1 * 10^3 parasites) with a Multidrop Combi dispenser. […] In all wells, the percentage of DMSO never exceeded 0.5%. Plates incubated for four days at 37C, 5% CO2. The substrate used for the assay fluorescence intensity (FLINT) readout was resorufin-beta-D-galactopiranoside (Sigma-Aldrich) at 5uM per well. It was diluted in PBS supplemented with the soft detergent Igepal (Fluka).; type: functional, organism-based, Mus musculus; settings: Tulahuen, NIH3T3
[2] = target: Sterol 14-alpha demethylase (Trypanosoma cruzi (strain CL Brener), UniProt Q7Z1V1); assay: GSK_TCAKS: pIC50 CYP51 from Trypanosoma cruzi.; type: functional
Sterol 14-alpha demethylase, sequence (Q7Z1V1 whole entry): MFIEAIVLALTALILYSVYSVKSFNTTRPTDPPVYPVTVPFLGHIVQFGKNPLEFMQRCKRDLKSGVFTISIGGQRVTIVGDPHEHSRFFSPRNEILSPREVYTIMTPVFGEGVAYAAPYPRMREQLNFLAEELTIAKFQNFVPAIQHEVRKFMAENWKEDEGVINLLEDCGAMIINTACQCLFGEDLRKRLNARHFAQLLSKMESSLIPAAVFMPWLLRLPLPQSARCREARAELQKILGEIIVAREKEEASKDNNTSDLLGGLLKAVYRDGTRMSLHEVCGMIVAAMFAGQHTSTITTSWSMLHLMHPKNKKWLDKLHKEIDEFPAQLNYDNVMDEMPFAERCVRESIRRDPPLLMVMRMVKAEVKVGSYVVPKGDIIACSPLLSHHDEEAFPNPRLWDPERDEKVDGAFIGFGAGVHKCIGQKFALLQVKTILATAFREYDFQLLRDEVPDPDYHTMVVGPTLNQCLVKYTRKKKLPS

[3] = tested on: Leishmania donovani; assay: (§1) GSK_TCAKS: pIC50 Leishmania donovani Imaging: Infected Macrophages. Assay plates (384-well) were prepared by adding 250nL of compound to each well. For single shot assay, the final compound concentration was 5 uM. […] Automated image analysis was performed with a script developed on Acapella High Content Imaging and Analysis Software (PerkinElmer). Output: Percent of infected macrophage cells were reported for each well.; type: functional, organism-based, Homo sapiens; settings: THP-1
[4] = tested on: Trypanosoma cruzi; assay: (§2) GSK_TCAKS: pIC50 Trypanosoma cruzi Imaging: Infected Cells. […] Cells were then washed once with PBS before infection. T. cruzi trypomastigotes, collected at days 5 to 8 after infection from LLC-MK2 parasite infected cultures, were allowed to swim out for 4h at 37C from a centrifuged pellet (2,500 rpm/10 min/room temperature). Trypomastigotes were then collected and counted in a CASY Cell Counter. Trypomastigotes, in supplemented DMEM, were added to H9c2 cultures in a multiplicity of infection of 1 and incubated for 18 h. Cells were washed once with PBS before incubation of the infected H9c2 monolayer with trypsin (Life-Technologies) to detach cells from the flask. Cells were counted in a CASY Cell Counter using a 150 um capillary and their density set at 5 * 10^4 cells per mL in supplemented assay DMEM. Infected H9c2 were dispensed into 384-well poly-lysine coated assay plates at 50uL per well using a Multidrop Combi dispenser. After seeding them, the plates were incubated at 37C, 5% CO2 for 72h. Cultures were then fixed and stained by addition of 50 uL of a solution containing 8% formaldehyde and 4 uM DRAQ5 DNA dye (BioStatus, UK) per well. […] Five images were collected per well for reliable statistical analysis. Automated image analysis was performed with a script developed on Acapella High Content Imaging and Analysis Software (PerkinElmer). Output: percentage of infected cells per well as a second infection marker.; type: functional, organism-based, Rattus norvegicus; settings: H9c2, 4 h
[5] = tested on: Trypanosoma brucei brucei; assay: GSK_TCAKS: pIC50 Trypanosoma brucei viability assay using fluorescence intensity. Assay plates (1536-well) were prepared by dispensing 25nL of compound solution per well using an Echo acoustic dispenser (Labcyte).; type: functional, organism-based; settings: Lister 427, 2 h
[6] = tested on: Leishmania donovani; assay: as §1, with “Amastigotes/Macrophages.” for “Infected Macrophages.”, “Average number” for “Percent”, “amastigotes per” for “infected”, “cell” for “cells”; type: functional, organism-based, Homo sapiens; settings: THP-1
[7] = GSK_TCAKS: pIC50 HepG2 human cell line viability assay using luminiscence. […] Seeding density was checked to ensure that new mono-layers were not more than 50% confluent at the time of harvesting. Cell suspension was added to 500 mL of the same medium at a final density of 1.2 * 10^5 cells/mL. This cell suspension was dispensed (25 uL, 3000 cells per well) into 384-well clear-bottom plates using a Multidrop Combi dispenser. Prior to addition of the cell suspension, the screening compounds (250 nL) were pre-dispensed into the plates with an Echo liquid handler. Plates were incubated for 48 h at 37C, 5% CO2. After incubation, plates equilibrated at room temperature for 30 min before proceeding to develop the luminescent signal. The signal developer, CellTiter-Glo Reagent, was allowed to equilibrate at room temperature for 30 min and added to the plates (25uL per well) using a Multidrop Combi dispenser. Plates were left for 10 min at room temperature for stabilization and then read using a ViewLux.; type: toxicity, cell-based
[8] = tested on: Leishmania donovani; assay: as §1, with “THP-1 Host” for “Infected”, “THP-1 cell count” for “Percent of infected macrophage cells”; type: functional, organism-based, Homo sapiens
[9] = tested on: Leishmania donovani; assay: GSK_TCAKS: pIC50 Leishmania donovani viability assay using fluorescence intensity. Assay plates (1536-well) were prepared by adding 30nL per well of compound. For single shot assay, the final compound concentration was 5uM. […] Briefly, eGFP LdBOB axenic amastigotes were harvested, fixed and counted in a CASY cell counter (Roche-Applied Science). A final concentration of 1.5 * 10^5 cells per well were prepared in amastigote media containing 500 U/mL penicillin/streptomycin (Invitrogen) and 6uL was dispensed to each experimental well using a Multidrop Combi dispenser (Thermo Scientific). 6uL of assay media was dispensed to control columns used as reference for 100% compound response. Following incubation for 72 h at 37C, 5% CO2, 2 uL of resazurin was added to each well at a final concentration of 0.5 mM in phosphate buffered saline (PBS) with IGEPAL (Sigma-Aldrich), 0.05% (v/v).; type: functional, organism-based
[10] = tested on: Trypanosoma brucei brucei; assay: GSK_TCAKS: pIC50 Trypanosoma brucei viability assay using luminiscence. Assay plates (1536-well) were prepared. T. brucei cultures were harvested and counted in a CASY cell counter. A parasite suspension was prepared at a final concentration of 5 * 10^4 cells/mL in complete HMI9 medium and 6uL was dispensed to all wells containing compounds using a Multidrop Combi dispenser. 6uL of HMI9 media with 0.4% DMSO were dispensed to control columns. Plates were incubated for 24 h at 37C, 5% CO2 then tempered for 10 min at room temperature. ATP content was quantified by adding 4 uL of CellTiter-Glo Reagent (Promega) according to the manufacturer's instructions. Luminescence was measured using a ViewLux.; type: functional, organism-based; settings: Lister 427, CASY
[11] = tested on: Trypanosoma cruzi; assay: GSK_TCAKS: pIC50 Trypanosoma cruzi Imaging: Amastigotes/Cell. […] Cells were then washed once with PBS before infection. T. cruzi trypomastigotes, collected at days 5 to 8 after infection from LLC-MK2 parasite infected cultures, were allowed to swim out for 4h at 37C from a centrifuged pellet (2,500 rpm/10 min/room temperature). Trypomastigotes were then collected and counted in a CASY Cell Counter. Trypomastigotes, in supplemented DMEM, were added to H9c2 cultures in a multiplicity of infection of 1 and incubated for 18 h. Cells were washed once with PBS before incubation of the infected H9c2 monolayer with trypsin (Life-Technologies) to detach cells from the flask. Cells were counted in a CASY Cell Counter using a 150 um capillary and their density set at 5 * 10^4 cells per mL in supplemented assay DMEM. Infected H9c2 were dispensed into 384-well poly-lysine coated assay plates at 50uL per well using a Multidrop Combi dispenser. After seeding them, the plates were incubated at 37C, 5% CO2 for 72h. Cultures were then fixed and stained by addition of 50 uL of a solution containing 8% formaldehyde and 4 uM DRAQ5 DNA dye (BioStatus, UK) per well. […] Five images were collected per well for reliable statistical analysis. Automated image analysis was performed with a script developed on Acapella High Content Imaging and Analysis Software (PerkinElmer). Output: number of amastigotes per cell as infection level measurement.; type: functional, organism-based, Rattus norvegicus; settings: H9c2, 4 h
[12] = tested on: Trypanosoma cruzi; assay: as §2, with “H2C9” for “Trypanosoma cruzi”, “H9c2 Host Cardiomyocytes.” for “Infected Cells.”, “Number” for “percentage”, “H9c2 Host Cardiomyocytes nuclei to determine drug-related cytotoxicity.” for “infected cells per well as a second infection marker.”; type: functional, organism-based, Rattus norvegicus; settings: H9c2, 4 h
[13] = tested on: NIH3T3; assay: GSK_TCAKS: pIC50 NIH 3T3 cell line viability assay using luminiscence. Tissue culture surface treated assay plates (1536-well) were used. […] The 100% cells survival control was determined exposing the host-cells to a 0.5% DMSO concentration, whereas the 100% toxicity control was achieved by seeding the cells in presence of Amphotericin B at 50uM. Plates were incubated for four days at 37C, 5% CO2. The assay readout was developed by addition of 5uL of CellTiter-Glo Reagent following the manufacturer's instructions. Luminiscence was measured using a ViewLux.; type: functional, cell-based; settings: Mus musculus, NIH3T3, 96 h

SMILES | IC50 [1] | IC50 [2] | IC50 [3] | IC50 [4] | IC50 [5] | IC50 [6] | IC50 at 48 h [7] | IC50 [8] | IC50 [9] | IC50 [10] | IC50 [11] | IC50 [12] | IC50 [13]
O=C(CN(c1cccc(C(F)(F)F)c1)S(=O)(=O)c1ccc(Cl)cc1)NCc1ccc(F)c(F)c1 | 0.794 µM | 0.158 µM | > 50.1 µM | 0.794 µM | 10 µM | > 50.1 µM | > 100 µM | 20 µM | > 50.1 µM | 25.1 µM | 0.501 µM | > 50.1 µM | 31.6 µM
CNc1cncc(C2CCCN2C(=O)Cc2ccc3ccccc3c2)n1 (centres undefined) | 0.0794 µM | 0.1 µM | > 50.1 µM | 0.158 µM | > 39.8 µM | > 50.1 µM | > 100 µM | > 50.1 µM | > 50.1 µM | > 39.8 µM | 0.158 µM | > 50.1 µM | > 50.1 µM
Cc1cc2ncn(-c3ccc([N+](=O)[O-])cc3C#N)c2cc1C | 1.26 µM | > 100 µM | > 50.1 µM | 2 µM | 20 µM | > 50.1 µM | > 100 µM | > 50.1 µM | > 50.1 µM | > 39.8 µM | 0.794 µM | > 50.1 µM | > 50.1 µM
C=CCn1nc([N+](=O)[O-])nc1Oc1ccc(Cl)cc1Cl | 0.251 µM | 20 µM | > 50.1 µM | 0.251 µM | 20 µM | 39.8 µM | > 100 µM | 39.8 µM | > 50.1 µM | > 39.8 µM | 0.126 µM | > 50.1 µM | 50.1 µM
Cc1cc(C#N)c([N+](=O)[O-])cc1Br | 0.2 µM | 7.94 µM | 39.8 µM | 0.316 µM | 0.794 µM | 31.6 µM | 31.6 µM | 25.1 µM | 25.1 µM | 3.98 µM | 0.0501 µM | 50.1 µM | 20 µM
CC(Cn1ccnc1)NC(=O)C1CC1c1cccc(Cl)c1Cl (centres undefined) | 0.141 µM | 0.126 µM | > 50.1 µM | 0.251 µM | > 39.8 µM | 10 µM | > 100 µM | > 50.1 µM | 15.8 µM | > 39.8 µM | 0.2 µM | > 50.1 µM | > 50.1 µM
CCn1nccc1CN(C)C(=O)C=Cc1ccc(Cl)cc1 | 0.224 µM | 0.316 µM | > 50.1 µM | 0.316 µM | 31.6 µM | > 50.1 µM | > 100 µM | > 50.1 µM | 15.8 µM | > 39.8 µM | 0.316 µM | > 50.1 µM | > 50.1 µM
CC(C)N(C(=O)CN1C(=O)C(N)C(=O)N(c2ccccc2)c2ccccc21)c1ccccc1 (centres undefined) | 0.316 µM | 0.316 µM | > 50.1 µM | 0.316 µM | > 39.8 µM | > 50.1 µM | > 100 µM | > 50.1 µM | > 50.1 µM | > 39.8 µM | 0.398 µM | > 50.1 µM | 20 µM
